Measurements published in patent US6306822A, “Phosphopeptides and methods of treating bone diseases” (Big Bear Bio, Inc., priority 1998, dated 2001).

Columns and labels:
[1] = tested on: bone formation and resorption; assay: In vitro or ex vivo bone formation and resorption assay systems; conditions: typical in vitro or ex vivo bone formation and resorption assay systems
Description: The mechanism of action of these polypeptides is not completely understood. […] These peptides may increase to bone formation by attracting calcium which is solubilized in the biological fluids (serum, bone marrow, and so on, etc.). In addition, these peptides may have an effect on the formation or cross-linking of bone matrix proteins, by forming hydroxyapatite on or between such matrix proteins.

ovariectomized rats = assay: Ovariectomized rat osteoporosis model, femur bone mineral content by DEXA; assay type: in vivo, Harlan-Sprague-Dawley rats; conditions: Day 45, femur, OVX rats; compared with sham (positive) and OVX saline (negative) controls; doses and routes per b114 table
Method: Ovariectomized rats were chosen for the efficacy study of O-phosphoserine containing polypeptides. Ovaries were surgically resected from young female Harlan-Sprague-Dawley rats. Sham-operated rats were also prepared to use as positive controls.
After 7 days acclimation, the ovariectomized (OVX) rats were randomly divided into different treatment groups (6 animals per each group). Six sham-operated rats were assigned to the positive control group. Each group was fed a normal rat diet throughout the test period but received different treatments as summarized below: […]
The test samples four groups 3, 4, 5, and 6 were dissolved in saline and administered at once. Total volume of the sample solution was 1 ml and 0.1 ml per animal for oral and parenteral administration, respectively. Oral preparations were administered once a day and injection (s.c.) was every three days.
The group receiving the highest amount of oral Pse (group 3) was used to compare the efficacy of monomeric Pse versus Pse contained in a polypeptide.
On Days 0, 45, and 90 of the treatment, the femurs of most of the participating animals were subject to DEXA (dual energy X-ray absorptiometry) measurement, a typical method by which to study the status of bone growth. The animals were anesthetized and fixed on the bed when receiving the DEXA scan. […]

Compound: N[C@@H](COP(=O)(O)O)C(=O)O [Pse, O-phosphoserine]
- biological effect on bone [1]: neither the O-phosphoserine-containingpolypeptides nor O-phosphoserine monomer had any biological effect
- bone mineral content (BMC) measured by DEXA (ovariectomized rats): close to that of the negative control
